Laboratory results as given in patent US11214569B2, “Prodrugs of quinuclidine ring-containing muscarinic agonists and compositions and methods thereof” (Lenz Therapeutics, Inc., priority 2018, dated 2022).

Assay: pH vs. solution stability of phosphono oxylmethyl prodrugs
Format: physicochemical

| Substance | Solubility (pH of solution 5.22) | Solubility (pH of solution 6.22) | Solubility (pH of solution 7.22) | Solubility (pH of solution 5.45) | Solubility (pH of solution 6.45) | Solubility (pH of solution 7.45) |
| --- | --- | --- | --- | --- | --- | --- |
| phosphono oxylmethyl aceclidine | Best | Fair | Poor | – | – | – |
| phosphono oxymethyl talsaclidine | – | – | – | Best | Fair | Poor |
